From PubChem BioAssay (NCI) come the findings set out here.

Holding throughout (assay): inhibition of tumour cell growth, NCI panel, 48 h
In assay [1] the test system is LOX IMVI melanoma.
Assay [2] deals with CCRF-CEM leukemia.
Assay [3] has as its system NCI-H23 lung.
Assay [4] relates to RXF 393 renal.
In assay [5] the test system is SK-MEL-28 melanoma.
For assay [6], the system named is UO-31 renal.
For assay [7], the system named is T-47D breast.
Assay [8] deals with NCI-H226 lung.
The test system of assay [9] is MOLT-4 leukemia.
Assay [10] deals with A498 renal.

Each structure is given as a SMILES string.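 Grown in 96-well plates, cells were treated for 48 hours with each compound at five concentrations. Insufficient inhibition: endpoint recorded as highest concentration tested. The concentration for 50% growth inhibition is given as GI50. TGI denotes the concentration required for complete inhibition of growth.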

In the case of `O=c1[nH]c(=O)n(C2OC(CO)C(O)C2O)cc1F` (stereo unspecified), the GI50 in assay [1] is 0.016 µM; in assay [2], 0.0369 µM; in [4] it was 0.04 nM; in [5] it was 0.0471 µM; in [9] it was 0.0428 µM; in [10] it was 0.0876 µM. For the same compound, the TGI in assay [1] was 7.18 µM; in assay [2], over 100 µM; in [3] it was over 43.9 µM; in assay [4], 2.45 µM; in [5] it was over 100 µM; in [6] it was 1.91 µM. The TGI is over 100 µM in [7], 27.6 µM in assay [8], over 100 µM in assay [9] and 5.61 µM in [10].
Take `CCC(C)C(=O)OC1CCC=C2C=CC(C)C(CCC3CC(O)CC(=O)O3)C21` (stereo unspecified): the TGI was over 100 µM in assay [1]; over 100 µM in [2]; over 100 µM in assay [3]; over 80.6 µM in [4]; over 100 µM in assay [5]; over 100 µM in [6]. The TGI in assay [7] was over 100 µM; in [8], over 100 µM; in assay [9] it was over 100 µM; in assay [10], over 66 µM.
`CCS(=O)(=O)N1CCN(c2ccc(Nc3ncc(C(N)=O)c(NC4CC4)n3)cc2)CC1`: the GI50 in assay [1] is 3.07 µM; in assay [2], 0.749 µM; in [3], 5.46 µM; in assay [4], 1610 nM; in assay [5], 13.6 µM; in assay [6], 1.1 µM. In addition, the GI50 was 2.88 µM in [7], 7.12 µM in assay [8], 2.7 µM in assay [9] and 4.32 µM in [10]. The TGI in assay [1] was over 100 µM; in assay [2] it was 10.9 µM; in assay [3], over 100 µM; in [4], 9.46 µM; in assay [5], 35.6 µM; in assay [6], 18.4 µM. The TGI was determined as 13.9 µM in assay [7], 35.9 µM in assay [8], 16.5 µM in assay [9] and 8.97 µM in [10].
On to `O=C(CCl)Nc1ccc(Cc2ccc(NC(=O)CCl)cc2)cc1`, for which the GI50 in assay [1] is 0.784 µM; in assay [2] it was 0.47 µM; in assay [3], 1.77 µM; in assay [4], 1430 nM; in assay [5] it was 2.15 µM; in [6] it was 2.77 µM. Moreover, the GI50 in assay [7] was 1.65 µM; in assay [8] it was 3.14 µM; in [9] it was 1.44 µM; in assay [10] it was 18.7 µM. Also, the TGI is 2.35 µM in assay [1]; 3.01 µM in assay [2]; 4.52 µM in assay [3]; 3.07 µM in assay [4]; 6.06 µM in assay [5]; over 23.4 µM in [6]. Further, the TGI was 4.67 µM in assay [7], over 100 µM in assay [8], 6.32 µM in [9] and 94.1 µM in assay [10].
For `C=C1C(=O)O[C@H]2[C@H]1CC/C(COC(=O)/C=C\C(=O)NCc1ccc(Cn3c(=O)sn(-c4ccc(Cl)cc4)c3=O)cc1)=C\CC[C@@]1(C)O[C@@H]21`, the GI50 is 0.193 µM in assay [1]; 0.173 µM in assay [2]; 0.884 µM in assay [3]; 476 nM in assay [4]; 0.816 µM in assay [5]; 0.515 µM in assay [6]. For the same compound, the GI50 in [7] is 0.881 µM; in [8], 1.24 µM; in assay [9], 0.499 µM; in [10], 0.741 µM. Moreover, the TGI worked out at 0.789 µM in [1]; 6.65 µM in [2]; 1.88 µM in [3]; 1.09 µM in assay [4]; 1.55 µM in assay [5]; 1.1 µM in assay [6]. The TGI in [7] was 2.15 µM; in assay [8], 4.28 µM; in assay [9], 3.27 µM; in assay [10], 1.43 µM.
As for `CCSCCCC(=O)O`, the TGI in assay [1], in [2], in assay [3], in assay [4], in assay [5] and in [6] was over 100 µM each time. Also, the TGI in assay [7], in assay [8], in [9] and in [10] was over 100 µM each time.
Consider `CC1(C)CN(CCNc2nccc(-c3c(-c4cccc(O)c4)nc4sccn34)n2)S(=O)(=O)N1`, for which the GI50 in [1] is 1.82 µM; in assay [2], 7.25 µM; in assay [3] it was 16.8 µM; in assay [4], 3000 nM; in [5], 0.268 µM; in [6], 13.3 µM. The GI50 is 11.2 µM in [7], 10.4 µM in assay [8], 11.3 µM in assay [9] and 1.55 µM in [10]. Besides, the TGI in assay [1] is over 33.2 µM; in assay [2] it was over 33.2 µM; in [3], over 33.2 µM; in assay [4] it was 21.6 µM; in assay [5], over 33.2 µM; in [6], over 33.2 µM. Moreover, the TGI was over 33.2 µM in assay [7], 32.4 µM in [8], over 33.2 µM in assay [9] and 19.7 µM in assay [10].
As to `CC(=O)c1ccc(Oc2c3ccccc3nc3occc23)cc1`, the GI50 was 6.35 µM in [1]; 4.8 µM in assay [2]; 18.9 µM in [3]; 6260 nM in assay [4]; 41.2 µM in assay [5]; 60.5 µM in assay [6]. Further, the GI50 was 8.21 µM in assay [7], 15.1 µM in [8], 5.71 µM in assay [9] and 28.1 µM in assay [10]. Moreover, the TGI in assay [1] is over 100 µM; in [2], over 100 µM; in [3] it was over 100 µM; in [4] it was 56.7 µM; in assay [5], over 100 µM; in [6], over 100 µM. Further, the TGI in [7] was over 100 µM; in assay [8] it was 90.3 µM; in assay [9], over 100 µM; in assay [10], 80.6 µM.
